Key:
Test in all cases: relative viability (nuclei count vs DMSO), 5 days (fraction); higher = more cells survive
CAL-12T = tested on: CAL-12T
Procedure, shortened: (§1)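 Dosing by pin tool came one day after lung cancer cell lines were seeded in 1536-well plates, using either one drug or a fixed anchor-drug dose plus five library-drug doses (not always all listed) in √10 steps. After 5 days, nuclei were counted on 4× images. Relative viability is treated-well nuclei count divided by vehicle-well nuclei count, and values are medians of duplicate plates.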

NCI-H2228 = tested on: NCI-H2228
Procedure, shortened: as §1

UMC-11 = tested on: UMC-11
Procedure, shortened: as §1

LC-2-ad = tested on: LC-2-ad
Procedure, shortened: as §1

NCI-H2405 = tested on: NCI-H2405
Procedure, shortened: as §1

LOU-NH91 = tested on: LOU-NH91
Procedure, shortened: as §1

HCC-78 = tested on: HCC-78
Procedure, shortened: as §1

NCI-H2170 = tested on: NCI-H2170
Procedure, shortened: as §1

NCI-H3122 = tested on: NCI-H3122
Procedure, shortened: as §1

ABC-1 = tested on: ABC-1
Procedure, shortened: as §1

NCI-H1395 = tested on: NCI-H1395
Procedure, shortened: as §1

Molecule `Nc1ccn([C@@H]2O[C@H](CO)[C@@H](O)[C@@H]2O)c(=O)n1` [Cytarabine] + N=C(N)NC(=N)NCCc1ccccc1 [Phenformin] (partner 250 µM) has a relative viability (CAL-12T; first compound 0.005 µM) of 0.524, a relative viability (CAL-12T; first compound 0.01581 µM) of 0.489 and a relative viability (CAL-12T; first compound 0.05 µM) of 0.638. It also gave a relative viability (CAL-12T; first compound 0.1581 µM) of 0.283, a relative viability (CAL-12T; first compound 0.5 µM) of 0.18 and a relative viability (NCI-H2228; first compound 0.005 µM) of 0.25. For the same molecule, the relative viability (NCI-H2228; first compound 0.01581 µM) was 0.197, the relative viability (NCI-H2228; first compound 0.05 µM) was 0.182 and the relative viability (NCI-H2228; first compound 0.1581 µM) was 0.118. For the same molecule, the relative viability (NCI-H2228; first compound 0.5 µM) was 0.112, the relative viability (UMC-11; first compound 0.005 µM) was 0.245 and the relative viability (UMC-11; first compound 0.01581 µM) was 0.232. It also gave a relative viability (UMC-11; first compound 0.05 µM) of 0.205, a relative viability (UMC-11; first compound 0.1581 µM) of 0.195 and a relative viability (UMC-11; first compound 0.5 µM) of 0.159. It also gave a relative viability (LC-2-ad; first compound 0.005 µM) of 0.454, a relative viability (LC-2-ad; first compound 0.01581 µM) of 0.466 and a relative viability (LC-2-ad; first compound 0.05 µM) of 0.49. For the same molecule, the relative viability (LC-2-ad; first compound 0.1581 µM) was 0.344, the relative viability (LC-2-ad; first compound 0.5 µM) was 0.261 and the relative viability (NCI-H2405; first compound 0.005 µM) was 0.387. For the same molecule, the relative viability (NCI-H2405; first compound 0.01581 µM) was 0.34, the relative viability (NCI-H2405; first compound 0.05 µM) was 0.288 and the relative viability (NCI-H2405; first compound 0.1581 µM) was 0.238. It also gave a relative viability (NCI-H2405; first compound 0.5 µM) of 0.258, a relative viability (LOU-NH91; first compound 0.005 µM) of 0.732 and a relative viability (LOU-NH91; first compound 0.01581 µM) of 0.75. The relative viability (LOU-NH91; first compound 0.05 µM) was 0.467, the relative viability (LOU-NH91; first compound 0.1581 µM) was 0.413 and the relative viability (LOU-NH91; first compound 0.5 µM) was 0.508. For the same molecule, the relative viability (HCC-78; first compound 0.005 µM) was 0.8, the relative viability (HCC-78; first compound 0.01581 µM) was 0.629 and the relative viability (HCC-78; first compound 0.05 µM) was 0.466. It also gave a relative viability (HCC-78; first compound 0.1581 µM) of 0.363, a relative viability (HCC-78; first compound 0.5 µM) of 0.366 and a relative viability (NCI-H2170; first compound 0.005 µM) of 0.328. For the same molecule, the relative viability (NCI-H2170; first compound 0.01581 µM) was 0.321, the relative viability (NCI-H2170; first compound 0.05 µM) was 0.25 and the relative viability (NCI-H2170; first compound 0.1581 µM) was 0.218. The relative viability (NCI-H2170; first compound 0.5 µM) was 0.205, the relative viability (NCI-H3122; first compound 0.005 µM) was 0.347 and the relative viability (NCI-H3122; first compound 0.01581 µM) was 0.323. For the same molecule, the relative viability (NCI-H3122; first compound 0.05 µM) was 0.293, the relative viability (NCI-H3122; first compound 0.1581 µM) was 0.244 and the relative viability (NCI-H3122; first compound 0.5 µM) was 0.18. The relative viability (ABC-1; first compound 0.005 µM) was 0.238, the relative viability (ABC-1; first compound 0.01581 µM) was 0.211 and the relative viability (ABC-1; first compound 0.05 µM) was 0.265. It also gave a relative viability (ABC-1; first compound 0.1581 µM) of 0.223, a relative viability (ABC-1; first compound 0.5 µM) of 0.174 and a relative viability (NCI-H1395; first compound 0.005 µM) of 0.411. The relative viability (NCI-H1395; first compound 0.01581 µM) was 0.392, the relative viability (NCI-H1395; first compound 0.05 µM) was 0.353 and the relative viability (NCI-H1395; first compound 0.1581 µM) was 0.319. The relative viability (NCI-H1395; first compound 0.5 µM) was 0.31.
